The results in this text go back to patent US7605272B2, “IGF-1R inhibitor” (Kyowa Hakko Kirin Co., Ltd., priority 2005, dated 2009).

For orientation: inhibition means the change of the read-out against control, counted positive when it falls.

Where a name gives a salt, the structure may show the parent alone.

T1 sequence (P08069 959-1367 limits assumed): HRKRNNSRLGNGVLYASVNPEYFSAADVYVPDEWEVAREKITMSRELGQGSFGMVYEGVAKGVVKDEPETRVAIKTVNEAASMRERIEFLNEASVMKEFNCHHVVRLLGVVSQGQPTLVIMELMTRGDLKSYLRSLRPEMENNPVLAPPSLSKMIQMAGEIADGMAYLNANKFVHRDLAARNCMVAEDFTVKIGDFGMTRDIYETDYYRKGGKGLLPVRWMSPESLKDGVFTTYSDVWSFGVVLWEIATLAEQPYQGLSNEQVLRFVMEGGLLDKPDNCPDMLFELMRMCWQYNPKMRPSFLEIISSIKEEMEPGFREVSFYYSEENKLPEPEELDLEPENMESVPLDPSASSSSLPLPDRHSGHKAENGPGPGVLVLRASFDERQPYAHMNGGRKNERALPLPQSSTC

This test concerns the target T1, IGF-1R (Homo sapiens, UniProt P08069).
T1 construct: purchased Upstate Co. 14-465
The experiment in a line: IGF-1R inhibitory activity (kinase reaction, time-resolved fluoroimmunoassay). The format is biochemical. The following applies: IGF-1R active recombinant enzyme, test compound 10 μmol/L. As for the experimental part:
The IGF-1R inhibitory activity was measured in the following manner.
As IGF-1R, active recombinant enzyme (Catalog No. 14-465) purchased from Upstate Co., was used. To 96 well plate (FIA-PLATE BLACK 96 well FALT-BOTTOM HIGH BINDING, Greiner Bio-one, Catalog No. 655077) coated with NeutroAvidin (Pierce, Catalog No. 31000), biotinylated polyglutamic acid-tyrosine peptide (Nihon Schering K.K., Catalog No. 61GT0BAA) was immobilized and then blocked with 0.25% gelatin to be used as a plate for measuring the kinase reaction. Separately was prepared a solution containing at final concentrations, IGF-1R (200 μg/L), Tris.HCl(pH 7.5)(20 mmol/L), Na3VO4(0.1 mmol/L), MgCl2(1 mmol/L), MnCl2(10 mmol/L), ATP(10 mmol/L), 2-mercaptoethanol (0.04%), BSA(Bovine Serum Albumin) (0.1%), DMSO(0.1%), test compound (10 μmol/L). The solution (each 50 μL) was added to the well of the plate for measuring the kinase reaction and then, enzyme reaction was performed for 30 minutes at 24° C. The plate was washed with TBS-T [10 mmol/L Tris Cl (pH 7.5), 150 mmol/L NaCl, 0.05% Tween 20 (Bio-Rad, Catalog No. 170-6531)] 4 times, then reacted with europium-labeled anti-phosphotyrosine antibody, further washed with TBS-T 4 times and then, measured with time-resolved fluoroimmunoassay (excitation wavelength 340 nm, measuring wavelength 615 nm). The value of a well to which the test compound had not been added was considered as 100% and that of a well where the enzyme and the test compound had not been added was considered as 0%. The relative activity (%) of the well which was added with enzyme and the test compound was measured and by subtracting the calculated value from 100, IGF-1R inhibitory activity of the test compound (%) was determined.
Regarding `O=C1c2ccncc2C(=O)N1c1ccccc1/C=C/c1n[nH]c2ccccc12` [Compound 198, (E)-2-{2-[2-(1H-indazol-3-yl)vinyl]phenyl}pyrrolo[3,4-c]pyridine-1,3-dione hydrochloride], the inhibition at 10 µM came to 87.2%.
On the same count and under the same terms, the figure for `O=C1c2cccc(F)c2C(=O)N1c1ccccc1/C=C/c1n[nH]c2ccccc12` [Compound 199, (E)-4-fluoro-2-{2-[2-(1H-indazol-3-yl)vinyl]phenyl}isoindole-1,3-dione] is 99.4%; for `O=C1c2cccc(O)c2C(=O)N1c1ccccc1/C=C/c1n[nH]c2ccccc12` [Compound 200, (E)-4-hydroxy-2-{2-[2-(1H-indazol-3-yl)vinyl]phenyl}isoindole-1,3-dione] it is 67.5%.
`CCNc1ccc2c(c1)C(=O)N(c1ccccc1/C=C/c1n[nH]c3ccccc13)C2=O` [Compound 201, (E)-5-ethylamino-2-{2-[2-(1H-indazol-3-yl)vinyl]phenyl}isoindole-1,3-dione]: the inhibition at 10 µM was determined as 99.1%.
In the case of `O=C1c2cc3ccccc3cc2C(=O)N1c1ccccc1/C=C/c1n[nH]c2ccccc12` [Compound 202, (E)-2-{2-[2-(1H-indazol-3-yl)vinyl]phenyl}benzo[f]isoindole-1,3-dione], the inhibition at 10 µM stood at 85.9%.
The same measure, in the same setting: the figure for `O=C1C2=C(CCCC2)C(=O)N1c1ccccc1/C=C/c1n[nH]c2ccccc12` [Compound 203, (E)-2-{2-[2-(1H-indazol-3-yl)vinyl]phenyl}-4,5,6,7-tetrahydroisoindole-1,3-dione] is 101%; for `CC1=C(C)C(=O)N(c2ccccc2/C=C/c2n[nH]c3ccccc23)C1=O` [Compound 204, (E)-1-{2-[2-(1H-indazol-3-yl)vinyl]phenyl}-3,4-dimethylpyrrole-2,5-dione] it is 99.8%; for `O=C1c2cccnc2C(=O)N1c1ccccc1/C=C/c1n[nH]c2ccccc12` [Compound 205, (E)-6-{2-[2-(1H-indazol-3-yl)vinyl]phenyl}pyrrolo[3,4-b]pyridine-5,7-dione] it is 89.8%.
The same measure, in the same setting: the figure for `O=C1CCCCN1c1ccccc1/C=C/c1n[nH]c2ccccc12` [Compound 206, (E)-1-{2-[2-(1H-indazol-3-yl)vinyl]phenyl}piperidin-2-one] is 101%; for `O=C1C(Cl)=C(Cl)C(=O)N1c1ccccc1/C=C/c1n[nH]c2ccccc12` [Compound 207, (E)-3,4-dichloro-1-{2-[2-(1H-indazol-3-yl)vinyl]phenyl}pyrrole-2,5-dione] it is 98.1%.
Same read-out and setting: the figure for `O=C1CCCN1c1ccccc1/C=C/c1n[nH]c2ccccc12` [Compound 208, (E)-1-{2-[2-(1H-indazol-3-yl)vinyl]phenyl}pyrrolidin-2-one] is 96.1%; for `O=C1c2ccsc2C(=O)N1c1ccccc1/C=C/c1n[nH]c2ccccc12` [Compound 209, (E)-5-{2-[2-(1H-indazol-3-yl)vinyl]phenyl}thieno[2,3-c]pyrrole-4,6-dione] it is 99.5%.
Regarding `O=C1C2=C(CCC2)C(=O)N1c1ccccc1/C=C/c1n[nH]c2ccccc12` [Compound 210, (E)-2-{2-[2-(1H-indazol-3-yl)vinyl]phenyl}-5,6-dihydro-4H-cyclopenta[c]pyrrole-1,3-dione], the inhibition at 10 µM was found to be 96.5%.
On the same count and under the same terms, then `O=C1CCC(=O)N1c1ccccc1/C=C/c1n[nH]c2ccccc12` [Compound 211, (E)-1-{2-[2-(1H-indazol-3-yl)vinyl]phenyl}pyrrolidine-2,5-dione], with 86.7%.
Turning to `O=C1CNC(=O)N1c1ccccc1/C=C/c1n[nH]c2ccccc12` [Compound 212, (E)-3-{2-[2-(1H-indazol-3-yl)vinyl]phenyl}imidazolidine-2,4-dione], the inhibition at 10 µM was 83.6%.
Turning to `CS(=O)(=O)c1ccc(C(=O)Nc2ccccc2/C=C/c2n[nH]c3ccccc23)cc1` [Compound 215, (E)-N-{2-[2-(1H-indazol-3-yl)vinyl]phenyl}-4-methanesulfonylbenzamide], the inhibition at 10 µM was 81.2%.
On to `Cc1ccsc1C(=O)Nc1cc(C(=O)N2CC[C@@H](N)C2)ccc1/C=C/c1n[nH]c2ccccc12` [Compound 221, (E)-(R)—N-{2-[2-(1H-indazol-3-yl)vinyl]-5-(3-aminopyrrolidin-1-ylcarbonyl)phenyl}-3-methylthiophene-2-carboxamide hydrochloride], for which the inhibition at 10 µM is 95.8%.
On the same count and under the same terms, the figure for `Cc1ccsc1C(=O)Nc1ccc(N2CCOCC2)cc1/C=C/c1n[nH]c2ccccc12` [Compound 225, (E)-N-{2-[2-(1H-indazol-3-yl)vinyl]-4-(morpholin-4-yl)phenyl}-3-methylthiophene-2-carboxamide hydrochloride] is 95%; for `Cn1cccc1C(=O)Nc1ccc(N2CCOCC2)cc1/C=C/c1n[nH]c2ccccc12` [Compound 226, (E)-N-{2-[2-(1H-indazol-3-yl)vinyl]-4-(morpholin-4-yl)phenyl}-1-methyl-1H-pyrrole-2-carboxamide hydrochloride] it is 97.8%; for `O=C1c2ccccc2C(=O)N1c1ccc(F)cc1/C=C/c1n[nH]c2ccccc12` [Compound 250, (E)-2-{4-fluoro-2-[2-(1H-indazol-3-yl)vinyl]phenyl}isoindole-1,3-dione] it is 98.9%.
In the case of `O=C(Nc1cc(Cl)ccc1/C=C/c1n[nH]c2ccccc12)c1cccs1` [Compound 257, (E)-{5-chloro-2-[2-(1H-indazol-3-yl)vinyl]phenyl}thiophene-2-carboxamide], the “inhibitory activity (%) at 10 μmol/L” value was found to be 101.8%.
Take `O=C1c2ccccc2C(=O)N1c1cc(Cl)ccc1/C=C/c1n[nH]c2ccccc12` [Compound 258, (E)-2-{5-chloro-2-[2-(1H-indazol-3-yl)vinyl]phenyl}isoindole-1,3-dione]: the inhibition at 10 µM is 100%.
The same measure, in the same setting: then `O=C(c1ccc(/C=C/c2n[nH]c3ccccc23)c(N2C(=O)c3ccccc3C2=O)c1)N1CCOCC1` [Compound 276, (E)-N-{2-[2-(1H-indazol-3-yl)vinyl]-5-(morpholin-4-ylcarbonyl)phenyl}isoindole-1,3-dione], with 99.6%.
On the same count and under the same terms, then `CN(C)C(=O)c1ccc(/C=C/c2n[nH]c3ccccc23)c(N2C(=O)c3ccccc3C2=O)c1` [Compound 285, (E)-3-(1,3-dioxo-1,3-dihydroisoindol-2-yl)-4-[2-(1H-indazol-3-yl)vinyl]-N,N-dimethylbenzamide], with 99%; and `O=C(c1ccc(/C=C/c2n[nH]c3ccccc23)c(N2C(=O)c3ccccc3C2=O)c1)N1CCN(CCO)CC1` [Compound 286, (E)-2-[5-[4-(2-hydroxyethyl)piperazin-1-ylcarbonyl]-2-[2-(1H-indazol-3-yl)vinyl]phenyl]isoindole-1,3-dione], with 96.1%.
In the case of `CN1CCN(C(=O)c2ccc(/C=C/c3n[nH]c4ccccc34)c(N3C(=O)c4ccccc4C3=O)c2)CC1` [Compound 287], the “inhibitory activity (%) at 10 μmol/L” value was found to be 97.1%.
Take `O=C(Nc1cc(C(=O)N2CCN(CCCO)CC2)ccc1/C=C/c1n[nH]c2ccccc12)c1ccco1` [Compound 291, (E)-N-{5-[4-(3-hydroxypropyl)piperazin-1-ylcarbonyl]-2-[2-(1H-indazol-3-yl)vinyl]phenyl}furan-2-carboxamide]: the inhibition at 10 µM came out at 97.7%.
